Results: PubChem BioAssay AID1259407 (Chemical Carcinogenesis Research Information System (CCRIS), 2018)
The source made the active and inactive calls. The rule behind the calls is not given here.

System: CCRIS mutagenicity, Ames/micronucleus/aberration tests
Test: CCRIS mutagenicity studies
[1] = Test System: AMES SALMONELLA TYPHIMURIUM, Strain/Indicator: TA98, Metabolic Activation: NONE, Method: PREINCUBATION
[2] = Test System: AMES SALMONELLA TYPHIMURIUM, Strain/Indicator: TA100, Metabolic Activation: NONE, Method: PREINCUBATION

In the case of `O=[N+]([O-])c1ccc(Br)c([N+](=O)[O-])c1`, the mutagenic call (Test System: AMES SALMONELLA TYPHIMURIUM, Strain/Indicator: TA98(1,8-DNP6), Metabolic Activation: NONE, Method: PREINCUBATION) was “active; positive”, the mutagenic call (Test System: AMES SALMONELLA TYPHIMURIUM, Strain/Indicator: TA98(NR), Metabolic Activation: NONE, Method: PREINCUBATION) was “active; positive” and the mutagenic call [1] was “active; positive”. For the same compound, the mutagenic call (Test System: AMES SALMONELLA TYPHIMURIUM, Strain/Indicator: TA100(NR), Metabolic Activation: NONE, Method: PREINCUBATION) was “active; positive”, the mutagenic call (Test System: AMES SALMONELLA TYPHIMURIUM, Strain/Indicator: TA100/GSH-, Metabolic Activation: NONE, Method: PREINCUBATION) was “active; positive” and the mutagenic call [2] was “active; positive”.

`Cc1ccc(N(CC2(O)OC[C@@H](O)[C@@H](O)[C@@H]2O)N=O)cc1` (stereo not given in full) was tested, and the mutagenic call (Test System: AMES SALMONELLA TYPHIMURIUM, Strain/Indicator: TA100, Metabolic Activation: NONE, Method: LIQUID INCUBATION) was “active; positive”.

`CCCCON=O` was tested, and the mutagenic call (Test System: AMES SALMONELLA TYPHIMURIUM, Strain/Indicator: TA98, Metabolic Activation: HAMSTER, LIVER, S-9, AROCLOR 1254, Method: STANDARD PLATE) was “inactive; negative”, the mutagenic call (Test System: AMES SALMONELLA TYPHIMURIUM, Strain/Indicator: TA98, Metabolic Activation: NONE, Method: STANDARD PLATE) was “inactive; negative” and the mutagenic call (Test System: AMES SALMONELLA TYPHIMURIUM, Strain/Indicator: TA98, Metabolic Activation: RAT, LIVER, S-9, AROCLOR 1254, Method: STANDARD PLATE) was “inactive; negative”. For the same compound, the mutagenic call (Test System: AMES SALMONELLA TYPHIMURIUM, Strain/Indicator: TA98, Metabolic Activation: S-9, Method: STANDARD PLATE) was “active; positive”, the mutagenic call (Test System: AMES SALMONELLA TYPHIMURIUM, Strain/Indicator: TA100, Metabolic Activation: HAMSTER, LIVER, S-9, AROCLOR 1254, Method: STANDARD PLATE) was “inactive; negative” and the mutagenic call (Test System: AMES SALMONELLA TYPHIMURIUM, Strain/Indicator: TA100, Metabolic Activation: NONE, Method: STANDARD PLATE) was “active; positive”. For the same compound, the mutagenic call (Test System: AMES SALMONELLA TYPHIMURIUM, Strain/Indicator: TA100, Metabolic Activation: RAT, LIVER, S-9, AROCLOR 1254, Method: STANDARD PLATE) was “inactive; negative”, the mutagenic call (Test System: AMES SALMONELLA TYPHIMURIUM, Strain/Indicator: TA100, Metabolic Activation: S-9, Method: STANDARD PLATE) was “active; positive” and the mutagenic call (Test System: AMES SALMONELLA TYPHIMURIUM, Strain/Indicator: TA1535, Metabolic Activation: HAMSTER, LIVER, S-9, AROCLOR 1254, Method: STANDARD PLATE) was “active; positive”. The mutagenic call (Test System: AMES SALMONELLA TYPHIMURIUM, Strain/Indicator: TA1535, Metabolic Activation: NONE, Method: STANDARD PLATE) was “active; positive”, the mutagenic call (Test System: AMES SALMONELLA TYPHIMURIUM, Strain/Indicator: TA1535, Metabolic Activation: RAT, LIVER, S-9, AROCLOR 1254, Method: STANDARD PLATE) was “active; positive” and the mutagenic call (Test System: AMES SALMONELLA TYPHIMURIUM, Strain/Indicator: TA1537, Metabolic Activation: HAMSTER, LIVER, S-9, AROCLOR 1254, Method: STANDARD PLATE) was “inactive; negative”. The mutagenic call (Test System: AMES SALMONELLA TYPHIMURIUM, Strain/Indicator: TA1537, Metabolic Activation: NONE, Method: STANDARD PLATE) was “inactive; negative”, the mutagenic call (Test System: AMES SALMONELLA TYPHIMURIUM, Strain/Indicator: TA1537, Metabolic Activation: RAT, LIVER, S-9, AROCLOR 1254, Method: STANDARD PLATE) was “inactive; negative” and the mutagenic call (Test System: MOUSE LYMPHOMA, Strain/Indicator: L5178Y (TK+/TK-), Metabolic Activation: NONE, Method: SUSPENSION/PLATE) was “active; positive. reevaluation of results: positive”. The mutagenic call (Test System: MOUSE LYMPHOMA, Strain/Indicator: L5178Y (TK+/TK-), Metabolic Activation: RAT, LIVER, S-9, AROCLOR 1254, Method: SUSPENSION/PLATE) was “active; positive. reevaluation of results: positive”.

`CC(C)CCC[C@@H](C)[C@H]1CC[C@H]2[C@@H]3CC=C4C[C@@H](OC(=O)Cc5ccc(N(CCCl)CCCl)cc5)CC[C@]4(C)[C@H]3CC[C@]12C` was tested, and the mutagenic call (Test System: AMES SALMONELLA TYPHIMURIUM, Strain/Indicator: TA98, Metabolic Activation: HAMSTER, LIVER, S-9, AROCLOR 1254 (10%), Method: PREINCUBATION) was “inactive; negative”, the mutagenic call [1] was “inactive; negative” and the mutagenic call (Test System: AMES SALMONELLA TYPHIMURIUM, Strain/Indicator: TA98, Metabolic Activation: RAT, LIVER, S-9, AROCLOR 1254 (10%), Method: PREINCUBATION) was “inactive; negative”. For the same compound, the mutagenic call (Test System: AMES SALMONELLA TYPHIMURIUM, Strain/Indicator: TA100, Metabolic Activation: HAMSTER, LIVER, S-9, AROCLOR 1254 (10%), Method: PREINCUBATION) was “inactive; negative”, the mutagenic call [2] was “inactive; negative” and the mutagenic call (Test System: AMES SALMONELLA TYPHIMURIUM, Strain/Indicator: TA100, Metabolic Activation: RAT, LIVER, S-9, AROCLOR 1254 (10%), Method: PREINCUBATION) was “inactive; negative”. For the same compound, the mutagenic call (Test System: AMES SALMONELLA TYPHIMURIUM, Strain/Indicator: TA1535, Metabolic Activation: HAMSTER, LIVER, S-9, AROCLOR 1254 (10%), Method: PREINCUBATION) was “inactive; negative”, the mutagenic call (Test System: AMES SALMONELLA TYPHIMURIUM, Strain/Indicator: TA1535, Metabolic Activation: NONE, Method: PREINCUBATION) was “inactive; negative” and the mutagenic call (Test System: AMES SALMONELLA TYPHIMURIUM, Strain/Indicator: TA1535, Metabolic Activation: RAT, LIVER, S-9, AROCLOR 1254 (10%), Method: PREINCUBATION) was “inactive; negative”. For the same compound, the mutagenic call (Test System: AMES SALMONELLA TYPHIMURIUM, Strain/Indicator: TA1537, Metabolic Activation: HAMSTER, LIVER, S-9, AROCLOR 1254 (10%), Method: PREINCUBATION) was “inactive; negative”, the mutagenic call (Test System: AMES SALMONELLA TYPHIMURIUM, Strain/Indicator: TA1537, Metabolic Activation: NONE, Method: PREINCUBATION) was “inactive; negative” and the mutagenic call (Test System: AMES SALMONELLA TYPHIMURIUM, Strain/Indicator: TA1537, Metabolic Activation: RAT, LIVER, S-9, AROCLOR 1254 (10%), Method: PREINCUBATION) was “inactive; negative”.
